These results are taken from patent publication US20060142323A1, “Dual binding site acetylcholinesterase inhibitors for the treatment of alzheimer's disease” (priority 2002, published 2006).

pIC50: −log10 of the molar value. A value given as a limit tells only on which side of the number the result lay.

Series [1] concerns the target T1, AChE from bovine erythrocytes (Bos taurus, UniProt P23795).
T1 construct: 0.02 units AChE (Sigma Chemical Co. from bovine erythrocytes); purchased Sigma Chemical Co; host or cells: bovine erythrocytes
T1 sequence (P23795 31-614 isoform P23795-2 limits assumed): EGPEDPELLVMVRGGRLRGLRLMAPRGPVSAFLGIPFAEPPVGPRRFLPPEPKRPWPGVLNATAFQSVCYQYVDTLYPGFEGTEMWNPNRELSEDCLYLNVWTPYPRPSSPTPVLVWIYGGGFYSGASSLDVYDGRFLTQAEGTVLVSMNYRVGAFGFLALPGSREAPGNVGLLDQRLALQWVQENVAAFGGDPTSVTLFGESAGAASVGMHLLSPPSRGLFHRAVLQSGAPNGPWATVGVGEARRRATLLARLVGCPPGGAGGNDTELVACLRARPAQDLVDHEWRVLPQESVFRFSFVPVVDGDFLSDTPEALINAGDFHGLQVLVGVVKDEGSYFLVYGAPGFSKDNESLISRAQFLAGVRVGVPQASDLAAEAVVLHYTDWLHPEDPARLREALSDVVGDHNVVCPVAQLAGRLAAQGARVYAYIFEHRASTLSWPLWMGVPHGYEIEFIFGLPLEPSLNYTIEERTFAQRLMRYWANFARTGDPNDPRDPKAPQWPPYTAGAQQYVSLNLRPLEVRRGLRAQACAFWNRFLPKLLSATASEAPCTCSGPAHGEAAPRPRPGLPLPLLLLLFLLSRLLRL
Briefly: AChE inhibition (from bovine erythrocytes), Ellman method at 25° C., Fluostar reader. The note with it: 0.5 mM acetylthiocholine iodide, pH 8, 10 min preincubation. It is filed as biochemical. As to the method:
AChE Inhibition (from Bovine Erythocytes)
AChE inhibitory activity was evaluated at 25° C. by the colorimetric method reported by Ellman (Ellman, G. L.; Courtney, K. D.; Andres, B.; Featherstone, R. M. Biochem. Pharmacol. 1961, 7, 88-95). The assay solution consisted on 0.02 unit/ml AChE from bovine erythrocytes, 0.1 M sodium phosphate buffer pH 8, 0.3 mM 5,5′-dithiobis (2-nitrobenzoic […]), and 0.5 mM acetylthiocholine iodide as the substrate of the enzymatic reaction. Enzyme activity was determined by measuring the absorbance at 405 nm during 10 minutes with a Fluostar optima plate reader (BMG). The tested compounds were preincubated with the enzyme for 10 minutes at 30° C.
(Ellman's reagent forms a yellow product with free thiols.)

The target of series [2] is T1, AChE from bovine erythrocytes. Kind of series: Acetylcholinesterase (AChE) inhibition (from bovine erythrocytes), Ellman method at 30° C., Digiscan 340T. As to conditions: bovine erythrocytes AChE, 30° C., 5 min preincubation; read-out: IC50 AchE. It is filed as biochemical. On the procedure: Acetylcholinesterase (AChE) Inhibition (from Bovine Erythrocytes)
AChE inhibitory activity was evaluated at 30° C. by the colorimetric method reported by Ellman [Ellman, G. L.; Courtney, K. D.; Andres, B.; Featherstone, R. M. Biochem. Pharmacol. 1961, 7, 88-95]. The assay solution consisted of 0.1 M phosphate buffer pH 8, 0.3 mM 5,5′-dithiobis (2-nitrobenzoic acid) (DTNB, Ellman's reagent), 0.02 units AChE (Sigma Chemical Co. from bovine erythrocytes), and 0.5 mM acetylthiocholine iodide as the substrate of the enzymatic reaction. The compounds tested were added to the assay solution and preincubated with the enzyme for 5 min at 30° C. After that period, the substrate was added. The absorbance changes at 405 nm were recorded for 5 min with a microplate reader Digiscan 340T, the reaction rates were compared, and the percent inhibition due to the presence of test compounds was calculated. The reaction rate was calculated with, at least, triplicate measurements, and the percent inhibition due to the presence of test compound was calculated relative to the compound-free control.

The target in series [3] is T2, BuChE from human serum (Homo sapiens, UniProt P06276).
T2 construct: The assay solution consisted of 0.01 units BuChE from human serum; from tissue; host or cells: human serum
Kind of series: Butyrylcholinesterase (BuChE) inhibition (from human serum). The note with it: human serum BuChE, 30° C., 10 min preincubation; read-out: IC50 BuChE. It is filed as biochemical. As to the method: Butyrylcholinetersae (BuChE) Inhibition (from Human Serum)
BuChE inhibitory activity was evaluated at 30° C. by the colorimetric method reported by Ellman (Ellman, G. L.; Courtney, K. D.; Andres, B.; Featherstone, R. M. Biochem. Pharmacol. 1961, 7, 88-95]. The assay solution consisted of 0.01 units BuChE from human serum, 0.1 M sodium phosphate buffer pH 8, 0.3 mM 5,5′-dithiobis (2-nitrobenzoic acid) (DTNB, Ellman's reagent), and 0.5 mM butylthiocholine iodide as the substrate of the enzymatic reaction. Enzyme activity was determined by measuring the absorbance at 405 nm during 5 minutes with a microplate reader Digiscan 340T. The tested compounds were preincubated with the enzyme for 10 minutes at 30° C. The reaction rate was calculated with, at least, triplicate measurements.

In series [4] the test system is human neuroblastoma cell line SH—SY5Y. Briefly: Toxicity measurement (LDH) in SH-SY5Y cells. The note with it: 24 hours exposure. It is filed as cell-based. As to the method: The cytotoxicity effect of the molecules was tested in the human neuroblastoma cell line SH—SY5Y. These cells were cultured in 96-well plates in minimum essential medium, Han's F12 medium, supplemented with 10% fetal bovine serum, 1% glutamine and 1% penicillin/streptomycin, and grown in. a 5% CO2 humidified incubator at 37° C.
The cells were plated at 10^4 cells for each well, at least, 48 hours before the toxicity measure. Cells were exposed for 24 hours to the compounds at different concentrations (from 10^−5 to 10^−9), quantitative assessment of cell death was made by measurement of the intracellular enzyme lactate dehydrogenase (LDH) (citotoxicity detection kit, Roche). The cuantity of LDH was evaluated in a microplate reader Anthos 2010, at 492 and 620 nm. Controls were taken as 100% viability.

Series [5] addresses AChE peripheral site (Homo sapiens, UniProt P22303). Briefly: Propidium competition (fluorescence). It counts as binding. As to conditions: 20 μM propidium iodide, AChE incubated at least 6 hours with compound. On the procedure: Fluorescence was measured in a Fluostar optima plate reader (BMG). Measurements were carried out in 100 μl solution volume, in 96-well plates. The buffer used was 1 mM Tris/HCl, pH 8.0. […] AChE was incubated, at least 6 hours, with the molecules at different concentrations. 20 μM propidium iodide was added 10 min before fluorescence measurement.

Series [6] has as its system SH—SY5Y cells exposed to β-amyloid fragment 25-35. Briefly: Effects on β-amyloid toxicity (fragment 25-35, LDH viability). As to conditions: 1 hour pretreatment, Aβ 25-35 at 200 μM, 24 hours. It is filed as cell-based, human. As to the method:
Effects on β-Amiloid Toxicity
We have tested if some of these molecules interfere with amyloid peptide toxicity. Cells SH—SY5Y were cultured in 96-well plates as toxicity experiments. Cells were pretreated for 1 hour with the compounds at different concentrations (from 10^−5 to 10^−9), immediately neuronal death is induced adding synthetic peptide β-amyloid, fragment 25-35 (A25-35) at 200 μM. 24 hours later cell viability was assessed with the LDH assay; results are reported relative to untreated wells.

T2 sequence (P06276 29-602): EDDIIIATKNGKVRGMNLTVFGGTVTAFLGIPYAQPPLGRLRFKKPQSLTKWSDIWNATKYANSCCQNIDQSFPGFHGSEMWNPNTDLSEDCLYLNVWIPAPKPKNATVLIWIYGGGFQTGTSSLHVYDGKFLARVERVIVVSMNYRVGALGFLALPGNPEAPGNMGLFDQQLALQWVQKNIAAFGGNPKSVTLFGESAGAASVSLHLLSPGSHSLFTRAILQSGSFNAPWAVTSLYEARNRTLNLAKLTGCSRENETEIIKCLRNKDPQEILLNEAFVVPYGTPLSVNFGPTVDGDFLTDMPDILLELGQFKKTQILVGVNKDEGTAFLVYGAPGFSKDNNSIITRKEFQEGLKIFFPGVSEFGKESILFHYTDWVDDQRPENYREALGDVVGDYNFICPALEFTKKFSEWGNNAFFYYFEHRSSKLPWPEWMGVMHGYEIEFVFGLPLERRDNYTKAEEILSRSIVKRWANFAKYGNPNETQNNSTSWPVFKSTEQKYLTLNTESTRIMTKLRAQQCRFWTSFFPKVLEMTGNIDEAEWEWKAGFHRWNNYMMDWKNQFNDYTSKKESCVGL
Sequence of AChE peripheral site (P22303 32-614): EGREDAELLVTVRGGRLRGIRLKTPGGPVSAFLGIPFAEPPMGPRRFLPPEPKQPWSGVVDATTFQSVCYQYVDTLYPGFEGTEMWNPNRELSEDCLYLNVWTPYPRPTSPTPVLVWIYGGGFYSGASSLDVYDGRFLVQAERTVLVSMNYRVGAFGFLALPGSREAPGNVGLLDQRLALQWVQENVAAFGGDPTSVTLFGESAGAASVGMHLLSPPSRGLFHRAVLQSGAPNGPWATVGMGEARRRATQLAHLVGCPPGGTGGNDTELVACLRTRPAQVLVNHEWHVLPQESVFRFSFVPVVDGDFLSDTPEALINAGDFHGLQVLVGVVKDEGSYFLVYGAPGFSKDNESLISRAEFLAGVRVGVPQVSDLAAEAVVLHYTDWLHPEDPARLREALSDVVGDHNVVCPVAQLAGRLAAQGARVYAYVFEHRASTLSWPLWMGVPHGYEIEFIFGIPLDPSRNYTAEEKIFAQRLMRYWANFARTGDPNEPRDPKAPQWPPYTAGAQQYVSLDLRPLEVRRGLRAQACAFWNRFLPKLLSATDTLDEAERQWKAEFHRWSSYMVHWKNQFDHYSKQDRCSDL

Usually pIC50 stands for the IC50 on a negative log10 scale, so that one unit is a factor of ten. Consider `CCCn1s/c(=N\CCCCCCCNc2c3c(nc4ccccc24)CCCC3)n(CC)c1=O` [Compound 16, 4-Ethyl-2-propyl-5-[7-(1,2,3,4-tetrahydro-acridin-9-ylamino)-heptyl-imino]-[1,2,4]thiadiazolidin-3-one], for which the values for the pIC50 in series [1], in series [2] and in series [3] were 6.69, 6.35 and 7.70, respectively. The Toxicity in series [4] was 50 µM. In addition, the Propidium competition in series [5] was over 100 µM.

Regarding `Clc1ccc2c(NCCCCCCCNc3c4ccccc4nc4ccccc34)c3c(nc2c1)CCCC3` [Compound 23, N-Acridin-9-yl-N′-(6-chloro-1,2,3,4-tetrahydro-acridin-9-yl)-heptane-1,7-diamine], the pIC50 is 9.40 in series [2] and 7.70 in series [3]. The Toxicity in series [4] turned out to be 0.5 µM. Besides, in series [5], the Propidium competition came out at 1 µM. Moreover, in series [6], the “inhibition of Aβ(25-35) toxicity” value was 1 µM.
